Source: ChEMBL document CHEMBL1201862, “PubChem BioAssay data set” (2004)
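96-well plates; 48 h exposure; 5 concentrations. Endpoints by linear interpolation between flanking doses. Not reached: highest tested concentration assigned. Here, GI50 denotes the concentration required for 50% inhibition of growth.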 Activity calls are given as the source filed them. Cut-off read from the data, not from the text of the source: active = GI50 up to about 1.1 µM and inactive = higher.

Assays:
Test in all cases: DTP human tumour cell line panel, 48 h
OVCAR-4 = test system: OVCAR-4
MOLT-4 = test system: MOLT-4
SF-268 = test system: SF-268
786-0 = test system: 786-0
SK-MEL-2 = test system: SK-MEL-2
UACC-257 = test system: UACC-257
CCRF-CEM = test system: CCRF-CEM
RPMI-8226 = test system: RPMI-8226
SK-MEL-5 = test system: SK-MEL-5
SW-620 = test system: SW-620
U-251 = test system: U-251
IGROV-1 = test system: IGROV-1
NCI-H226 = test system: NCI-H226
CAKI-1 = test system: CAKI-1
COLO 205 = test system: COLO 205
A498 = test system: A498
NCI/ADR-RES = test system: NCI/ADR-RES
T47D = test system: T47D

Measured: GI50

Cn1cc(C(=O)c2ccccc2)ccc1=O
inactive: OVCAR-4 > 100 µM | MOLT-4 > 100 µM | SF-268 > 100 µM | 786-0 > 100 µM | SK-MEL-2 > 100 µM | UACC-257 > 100 µM | CCRF-CEM > 100 µM | RPMI-8226 > 100 µM | SK-MEL-5 > 100 µM | SW-620 > 100 µM | U-251 > 100 µM | IGROV-1 > 100 µM | NCI-H226 > 100 µM | CAKI-1 > 100 µM | COLO 205 > 100 µM

COc1ccc(Nc2nc3ccccc3nc2-c2cccs2)cc1
inactive: OVCAR-4 > 100 µM | MOLT-4 > 100 µM | SF-268 > 100 µM | 786-0 75 µM | SK-MEL-2 > 100 µM | UACC-257 > 100 µM | CCRF-CEM > 100 µM | SK-MEL-5 65.3 µM | SW-620 > 100 µM | A498 42.6 µM | U-251 > 100 µM | IGROV-1 > 100 µM | NCI-H226 > 100 µM | CAKI-1 > 100 µM | COLO 205 > 100 µM

C1CCC(OCc2nnn3c2CCC3)OC1 (stereo not drawn)
inactive: OVCAR-4 > 100 µM | MOLT-4 > 100 µM | SK-MEL-2 > 100 µM | UACC-257 > 100 µM | CCRF-CEM > 100 µM | SK-MEL-5 > 100 µM | SW-620 > 100 µM | U-251 > 100 µM | IGROV-1 > 100 µM

Nc1c(/N=N/c2ccc(-c3ccc(/N=N/c4c(O)ccc5cc(S(=O)(=O)O)cc(S(=O)(=O)O)c45)cc3)cc2)c(S(=O)(=O)O)cc2cc(S(=O)(=O)O)c(/N=N/c3ccccc3)c(O)c12
inactive: OVCAR-4 > 100 µM | MOLT-4 > 100 µM | SF-268 > 100 µM | SK-MEL-2 > 100 µM | UACC-257 > 100 µM | CCRF-CEM > 100 µM | RPMI-8226 > 100 µM | SK-MEL-5 > 100 µM | SW-620 > 100 µM | A498 > 100 µM | U-251 > 100 µM | IGROV-1 > 100 µM | NCI-H226 19.6 µM | COLO 205 > 100 µM | NCI/ADR-RES > 100 µM

OCc1ccccc1C1CSCSC1
inactive: OVCAR-4 > 100 µM | MOLT-4 > 100 µM | SF-268 > 100 µM | SK-MEL-2 > 100 µM | UACC-257 > 100 µM | CCRF-CEM > 100 µM | SK-MEL-5 > 100 µM | SW-620 > 100 µM | U-251 > 100 µM | NCI-H226 > 100 µM

CCCCCCCCCC/C=C/C=O
inactive: MOLT-4 70.3 µM | SF-268 > 100 µM | SK-MEL-2 > 100 µM | UACC-257 > 100 µM | CCRF-CEM > 100 µM | SK-MEL-5 > 100 µM | SW-620 > 100 µM | A498 > 100 µM | U-251 > 100 µM | IGROV-1 > 100 µM | COLO 205 > 100 µM

CC1=C2[C@@H](c3ccccc3)C3C=CC2(C=C3C(F)(F)F)N(C(=O)NC2CCCCC2)C1=O (stereo partly drawn)
inactive: OVCAR-4 > 100 µM | MOLT-4 16.2 µM | SF-268 91 µM | 786-0 78 µM | UACC-257 36.2 µM | CCRF-CEM 25.1 µM | SK-MEL-5 43.5 µM | SW-620 > 100 µM | A498 > 100 µM | U-251 > 100 µM | IGROV-1 > 100 µM | CAKI-1 51.8 µM | COLO 205 > 100 µM

COc1cc2oc(-c3ccc(O)cc3)cc(=O)c2c(O)c1C1OC(CO)C(O)C(O)C1O (stereo not drawn)
inactive: OVCAR-4 > 100 µM | MOLT-4 > 100 µM | SF-268 > 100 µM | 786-0 > 100 µM | SK-MEL-2 > 100 µM | UACC-257 > 100 µM | CCRF-CEM > 100 µM | RPMI-8226 > 100 µM | SK-MEL-5 > 100 µM | SW-620 11.5 µM | A498 > 100 µM | U-251 > 100 µM | IGROV-1 > 100 µM | NCI-H226 > 100 µM | CAKI-1 > 100 µM | COLO 205 > 100 µM

C/C=C/c1cc2c(c(=O)o1)C(=O)[C@@H](O)[C@H](C)O2
inactive: OVCAR-4 15.4 µM | MOLT-4 9.71 µM | SF-268 13 µM | SK-MEL-2 18.8 µM | UACC-257 14.4 µM | CCRF-CEM 5.46 µM | RPMI-8226 4.09 µM | SK-MEL-5 15 µM | SW-620 11 µM | A498 12 µM | U-251 17.6 µM | IGROV-1 8.32 µM | NCI-H226 16.9 µM | CAKI-1 17.3 µM | COLO 205 11.4 µM | NCI/ADR-RES 15.9 µM

CC(C(=O)COCc1ccccc1)P1(=O)OC(C)(C)CN1C(C)(C)C (stereo not drawn)
inactive: OVCAR-4 28.8 µM | MOLT-4 > 100 µM | SF-268 > 100 µM | 786-0 > 100 µM | UACC-257 > 100 µM | CCRF-CEM > 100 µM | RPMI-8226 > 100 µM | SK-MEL-5 > 100 µM | SW-620 > 100 µM | A498 > 100 µM | NCI-H226 > 100 µM | CAKI-1 > 100 µM | COLO 205 > 100 µM | T47D > 100 µM | NCI/ADR-RES > 100 µM

CC1=C(C(=O)Nc2cccc(Cl)c2)C(c2ccc([N+](=O)[O-])cc2)C(C(=O)Nc2cccc(Cl)c2)=C(C)N1
inactive: OVCAR-4 20.7 µM | MOLT-4 10.3 µM | SF-268 27 µM | 786-0 22 µM | SK-MEL-2 18.3 µM | UACC-257 16.7 µM | CCRF-CEM 10.9 µM | RPMI-8226 15.5 µM | SK-MEL-5 17.5 µM | SW-620 > 10 µM | A498 33.1 µM | U-251 15.8 µM | IGROV-1 26.5 µM | NCI-H226 26.9 µM | COLO 205 34.5 µM

CCOC(=O)C1(Cc2ccc3ccccc3c2)CCCCC(=O)N1 (stereo not drawn)
inactive: OVCAR-4 36.1 µM | MOLT-4 7.35 µM | SF-268 49.8 µM | 786-0 38.8 µM | CCRF-CEM 23.3 µM | RPMI-8226 3.78 µM | SW-620 27.5 µM | U-251 41.1 µM | IGROV-1 57 µM | CAKI-1 43.1 µM | COLO 205 39.1 µM

O=C(/C(=C/c1ccc(O)cc1)c1ccccc1)c1ccccc1
inactive: OVCAR-4 21.9 µM | MOLT-4 15.4 µM | SF-268 17.3 µM | 786-0 18.5 µM | SK-MEL-2 11.6 µM | UACC-257 18 µM | CCRF-CEM 20 µM | RPMI-8226 17.3 µM | SK-MEL-5 15 µM | SW-620 18 µM | A498 17.9 µM | U-251 16.2 µM | IGROV-1 18.7 µM | NCI-H226 16.7 µM | CAKI-1 19.1 µM | COLO 205 17.5 µM

C=CC[N+](CCO)(CCO)CCCCCCCCCCCCCCCCCC
inactive: OVCAR-4 3.88 µM | MOLT-4 1.61 µM | SF-268 3.33 µM | SK-MEL-2 14.5 µM | UACC-257 6.38 µM | CCRF-CEM 1.23 µM | RPMI-8226 2.25 µM | SK-MEL-5 8.13 µM | SW-620 6.24 µM | A498 15.6 µM | U-251 1.97 µM | IGROV-1 1.97 µM | NCI-H226 7.78 µM | CAKI-1 4.46 µM | COLO 205 3.36 µM | NCI/ADR-RES 23.5 µM
